Here are results for 66 compounds from US20080146593A1, “Substituted 5-Phenyl Pyrimidines I In Therapy” (Basf Aktiengesellschaft, priority 2005, published 2008).

SMILES strings stand for the structures.

The subject of this assay is HeLa cells. Briefly: Measurement of the cell cycle inhibition in HeLa cells. The assay is classed as cell-based. The note with it: HeLa B cells, 20 h incubation with compound; FACS ratio G0/G1 to G2/M vs DMSO; concentration at which 50% of cells are in cell cycle arrest. Here is the method:
Measurement of the Cell Cycle Inhibition in HeLa Cells—Test Procedure:
HeLa B cells are grown in DMEM (Life Technologies Cat No 21969-035) supplemented with 10% Fetal Calf Serum (FCS, Life Technologies Cat No 10270-106) in 180 cm^2 Flasks at 37° C., 92% humidity and 7% CO2.
Cells are seeded at 5×10^4 cells per well in a 24-well plate. Twenty hours later the compounds are added such that the final concentration is 1×10^−6, 3.3×10^−7, 1.1×10^−7, 3.7×10^−8, 1.2×10^−8 and 1×10^−9 M in a final volume of 500 μl. DMSO alone is added to 6 wells as a control. Cells are incubated with the compounds as above for 20 h. Then cells are observed under the microscope to check for cell death, and the 24-well plate is then centrifuged at 1200 rpm for 5 min at 20° C., acceleration position 7 and break position 5 (Eppendorf centrifuge 5804R).
The supernatant is removed and the cells lysed with 0.5 ml RNase Buffer (10 mM NaCitrate, 0.1% Nonidet NP40, 50 μg/ml RNase, 10 μg/ml Propidium iodide) per well. The plates are then incubated for at least 30 min in the dark at RT and the samples then transferred to FACS tubes. Samples are measured in a FACS machine (Beckton Dickinson) at the following settings:
Instrument Settings of the FACS Calibur:
The ratio of cells in G0/G1-phase to G2/M phase is calculated and compared to the value for the controls (DMSO) only. Results are given in table 2 as the IC50 value calculated from the concentration curve plotted against the cell cycle ratio and indicate the compound concentration at which 50% of cells are in cell cycle arrest after treatment with the compound.
In the case of `CC(=O)NC(=O)c1nc(Cl)c(-c2c(F)cccc2F)c(N2CCC(C)CC2)n1` [Example 184], the half-maximal inhibitory concentration (IC50) (as a rule, the concentration that gives 50% inhibition) is 51 nM.

With `C[C@H](Nc1nc(C(N)=NOC(F)F)nc(Cl)c1-c1c(F)cc(F)cc1F)C(F)(F)F` [Example 177], the IC50 was determined as 21 nM.

Take `C[C@H](Nc1nc(-n2cc(I)cn2)nc(Cl)c1-c1c(F)cc(F)cc1F)C(F)(F)F` [Example 34]: the IC50 amounted to 25 nM.

For `Cc1nc(-c2nc(Cl)c(-c3c(F)cc(F)cc3F)c(N[C@H](C)C(C)C)n2)cs1` [Example 70], the IC50 worked out at 35 nM.

For `CC1CCN(c2nc(C(N)=O)nc(Cl)c2-c2c(F)cccc2F)CC1` [Example 179], the IC50 was 53 nM.

For the compound `CC1CCN(c2nc(-n3cccn3)nc(Cl)c2-c2c(F)cccc2Cl)CC1` [Example 66], the IC50 is 37 nM.

As for `C[C@H](Nc1nc(N(C)N)nc(Cl)c1-c1c(F)cc(F)cc1F)C(F)(F)F` [Example 9], the IC50 worked out at 13 nM.

Consider `CC(C)[C@H](C)Nc1nc(C(N)=NO)nc(Cl)c1-c1c(F)cccc1F` [Example 195], for which the concentration for half-maximal inhibition (IC50) is 20 nM.

On to `C[C@H](Nc1nc(-c2nccs2)nc(Cl)c1-c1c(F)cc(F)cc1F)C(F)(F)F` [Example 129], for which the IC50 came to 14 nM.

As for `CCC(C)Nc1nc(C(N)=NO)nc(Cl)c1-c1c(F)cc(F)cc1F` (stereo not drawn) [Example 146], the IC50 worked out at 32 nM.

Take `CC(C)Nc1nc(-n2nccc2[N+](=O)[O-])nc(Cl)c1-c1c(F)cc(F)cc1F` [Example 23]: the IC50 was 39 nM.

For `CC1CCCN(c2nc(-n3cccn3)nc(Cl)c2-c2c(F)cc(F)cc2F)C1` (stereo not drawn) [Example 43], the IC50 was determined as 19 nM.

`CC(C)Nc1nc(-n2cc(Br)cn2)nc(Cl)c1-c1c(F)cccc1Cl` [Example 19]: the IC50 came out at 16 nM.

Turning to `CCC(C)Nc1nc(-n2cccn2)nc(Cl)c1-c1c(C)cccc1F` (stereo not drawn) [Example 109], the half-maximal inhibitory concentration (IC50) was 25 nM.

On to `CC1CCCN1c1nc(C(N)=NO)nc(Cl)c1-c1ccc(F)cc1Cl` (stereo not drawn) [Example 208], for which the half-inhibitory concentration (IC50) is 56 nM.

Turning to `CC(C)[C@H](C)Nc1nc(C(N)=NO)nc(Cl)c1-c1ccc(F)cc1Cl` [Example 193], the half-maximal inhibitory concentration (IC50) was 9 nM.

For `COc1cc(F)c(-c2c(Cl)nc(-c3ccccn3)nc2N2CCC(C)CC2)c(F)c1` [Example 61], the IC50 came to 21 nM.

Consider `CC1CCN(c2nc(C(N)=NO)nc(Cl)c2-c2c(F)cc(F)cc2F)CC1` [Example 58], for which the IC50 was determined as 26 nM.

On to `CC1CCN(c2nc(-n3cncn3)nc(Cl)c2-c2c(F)cc(F)cc2F)CC1` [Example 28], for which the IC50 came out at 17 nM.

Turning to `COc1cc(F)c(-c2c(Cl)nc(C(N)=NO)nc2N[C@@H](C)C(C)C)c(F)c1` [Example 191], the IC50 is 12 nM.

Turning to `COc1cc(F)c(-c2c(Cl)nc(C(N)=NO)nc2N2CCC(C)CC2)c(F)c1` [Example 190], the half-maximal inhibitory concentration (IC50) is 26 nM.

`Fc1cc(F)c(-c2c(Cl)nc(-n3cc(Br)cn3)nc2N2CCCCC2)c(F)c1` [Example 53]: the IC50 was 26 nM.

As for `Cc1csc(-c2nc(Cl)c(-c3c(F)cc(F)cc3F)c(N[C@@H](C)C(F)(F)F)n2)n1` [Example 178], the IC50 was 20 nM.

As for `Cc1cn(-c2nc(Cl)c(-c3c(F)cc(F)cc3F)c(NC(C)C(F)(F)F)n2)nc1-c1ccco1` (stereo not drawn) [Example 95], the IC50 came to 39 nM.

For the compound `C[C@H](Nc1nc(C(N)=NO)nc(Cl)c1-c1ccc(F)cc1Cl)C(F)(F)F` [Example 172], the IC50 came to 21 nM.

With `C[C@H](Nc1nc(-n2cncn2)nc(Cl)c1-c1c(F)cc(F)cc1F)C(F)(F)F` [Example 8], the IC50 turned out to be 13 nM.

Take `CC1CCCN1c1nc(-n2cncn2)nc(Cl)c1-c1c(F)cc(F)cc1F` (stereo not drawn) [Example 75]: the IC50 worked out at 14 nM.

As to `CC(C)C(C)Nc1nc(-c2ccccn2)nc(Cl)c1-c1c(F)cccc1F` (stereo not drawn) [Example 84], the IC50 was 27 nM.

With `Cc1ccn(-c2nc(Cl)c(-c3c(F)cc(F)cc3F)c(N[C@H](C)C(C)C)n2)n1` [Example 92], the half-inhibitory concentration (IC50) was determined as 26 nM.

Consider `Cc1cc(C)n(-c2nc(Cl)c(-c3c(F)cc(F)cc3F)c(N3CCC(C)CC3)n2)n1` [Example 30], for which the IC50 came out at 48 nM.

On to `CCNc1nc(-n2cccn2)nc(Cl)c1-c1c(F)cc(F)cc1F` [Example 164], for which the half-inhibitory concentration (IC50) turned out to be 48 nM.

`C=CCCN(C)c1nc(-n2ccc(N)n2)nc(Cl)c1-c1c(F)cccc1Cl` [Example 131]: the IC50 was 48 nM.

Consider `COc1cc(F)c(-c2c(Cl)nc(-c3ccccn3)nc2NC(C)C)c(F)c1` [Example 62], for which the IC50 was 23 nM.

`C[C@H](Nc1nc(-n2cccn2)nc(Cl)c1-c1c(F)cc(F)cc1F)C(F)(F)F` [Example 1]: the half-maximal inhibitory concentration (IC50) stood at 4.8 nM.

`C[C@H](Nc1nc(C(N)=S)nc(Cl)c1-c1c(F)cccc1Cl)C(F)(F)F` [Example 169]: the IC50 is 41 nM.

Turning to `COc1ccc(-c2c(Cl)nc(C(N)=NO)nc2N[C@@H](C)C(F)(F)F)c(Cl)c1` [Example 215], the IC50 stood at 14 nM.

Turning to `CC(=NO)c1nc(Cl)c(-c2c(F)cc(F)cc2F)c(N[C@@H](C)C(F)(F)F)n1` [Example 209], the half-inhibitory concentration (IC50) was found to be 18 nM.

With `CON=C(N)c1nc(Cl)c(-c2c(F)cc(F)cc2F)c(N[C@@H](C)C(C)C)n1` [Example 147], the half-inhibitory concentration (IC50) is 41 nM.

Turning to `Cc1nc(-c2nc(Cl)c(-c3c(F)cc(F)cc3F)c(NC3CCCC3)n2)cs1` [Example 72], the IC50 turned out to be 46 nM.

As to `CON=C(N)c1nc(Cl)c(-c2ccc(F)cc2Cl)c(N[C@@H](C)C(C)C)n1` [Example 218], the IC50 is 29 nM.

Regarding `CON=C(N)c1nc(Cl)c(-c2ccc(OC)cc2Cl)c(N[C@@H](C)C(F)(F)F)n1` [Example 216], the IC50 was found to be 27 nM.

As for `Fc1cc(F)c(-c2c(Cl)nc(-n3ccnn3)nc2N2CCCCC2)c(F)c1` [Example 56], the half-inhibitory concentration (IC50) worked out at 11 nM.

Consider `CON=C(N)c1nc(Cl)c(-c2ccc(OC)cc2Cl)c(N[C@@H](C)C(C)C)n1` [Example 186], for which the IC50 came out at 33 nM.

As to `Cc1ccc(-c2c(Cl)nc(-n3cncn3)nc2N[C@@H](C)C(C)C)c(F)c1` [Example 100], the half-inhibitory concentration (IC50) amounted to 40 nM.

On to `CCC(C)Nc1nc(-c2ccccn2)nc(Cl)c1-c1c(F)cc(OC)cc1F` (stereo not drawn) [Example 63], for which the concentration for half-maximal inhibition (IC50) was 22 nM.

On to `CC[C@H](C)Nc1nc(C(N)=NO)nc(Cl)c1-c1ccc(F)cc1Cl` [Example 168], for which the half-inhibitory concentration (IC50) worked out at 36 nM.

`CC1CCN(c2nc(-n3cncn3)nc(Cl)c2-c2c(F)cccc2F)CC1` [Example 116]: the IC50 is 42 nM.

Turning to `Fc1cc(F)c(-c2c(Cl)nc(-n3cccn3)nc2N2CCCCC2)c(F)c1` [Example 51], the concentration for half-maximal inhibition (IC50) amounted to 6.5 nM.

Consider `C=CCCN(C)c1nc(-n2cc(C)cn2)nc(Cl)c1-c1ccc(F)cc1Cl` [Example 133], for which the IC50 turned out to be 41 nM.

For the compound `CC1CCN(c2nc(C(N)=NO)nc(Cl)c2-c2c(F)cccc2F)CC1` [Example 194], the IC50 came out at 21 nM.

Consider `C=CCCN(C)c1nc(-n2cccn2)nc(Cl)c1-c1ccc(F)cc1Cl` [Example 132], for which the 50% inhibitory concentration (IC50) is 46 nM.

On to `CC(C)[C@H](C)Nc1nc(C(N)=NO)nc(Cl)c1-c1ccc([N+](=O)[O-])cc1Cl` [Example 192], for which the IC50 turned out to be 30 nM.

For the compound `CC(C)[C@@H](C)Nc1nc(-n2cncn2)nc(Cl)c1-c1c(F)cc(F)cc1F` [Example 60], the 50% inhibitory concentration (IC50) is 19 nM.

With `CON=C(N)c1nc(Cl)c(-c2cc(F)ccc2Cl)c(N[C@@H](C)C(C)C)n1` [Example 202], the IC50 amounted to 38 nM.

Regarding `C[C@H](Nc1nc(-n2cc(C#N)cn2)nc(Cl)c1-c1c(F)cc(F)cc1F)C(F)(F)F` [Example 162], the IC50 is 17 nM.

In the case of `CC1CCCN1c1nc(-n2ccnn2)nc(Cl)c1-c1c(F)cc(F)cc1F` (stereo not drawn) [Example 76], the concentration for half-maximal inhibition (IC50) came to 7.6 nM.

Regarding `CC(C)Nc1nc(C(N)=NO)nc(Cl)c1-c1c(F)cc(F)cc1F` [Example 144], the IC50 was determined as 25 nM.

Turning to `COc1cc(F)c(-c2c(Cl)nc(-n3cnc([N+](=O)[O-])n3)nc2N2CCC(C)CC2)c(F)c1` [Example 86], the IC50 was 24 nM.

Turning to `CC[C@H](C)Nc1nc(-n2cccn2)nc(Cl)c1-c1ccc(C)cc1F` [Example 102], the IC50 is 50 nM.

As for `Cc1nc(C)n(-c2nc(Cl)c(-c3c(F)cc(F)cc3F)c(N3CC=CCC3)n2)n1` [Example 59], the IC50 was 43 nM.

As to `COc1ccc(-c2c(Cl)nc(C(N)=O)nc2N[C@@H](C)C(C)C)c(Cl)c1` [Example 183], the IC50 is 53 nM.

Regarding `C[C@H](Nc1nc(C(N)=NO)nc(Cl)c1-c1cc(F)ccc1Cl)C(F)(F)F` [Example 220], the IC50 turned out to be 36 nM.

For the compound `C[C@H](Nc1nc(-n2ccc(C(F)(F)F)n2)nc(Cl)c1-c1c(F)cc(F)cc1F)C(F)(F)F` [Example 6], the half-inhibitory concentration (IC50) amounted to 17 nM.

In the case of `C[C@H](Nc1nc(-c2ccccn2)nc(Cl)c1-c1c(F)cc(F)cc1F)C(F)(F)F` [Example 12], the IC50 was determined as 6.9 nM.

`CC1CCN(c2nc(-c3ccccn3)nc(Cl)c2-c2c(F)cccc2F)CC1` [Example 81]: the IC50 amounted to 34 nM.

As to `CC1CCCN(c2nc(-n3cncn3)nc(Cl)c2-c2c(F)cc(F)cc2F)C1` (stereo not drawn) [Example 44], the concentration for half-maximal inhibition (IC50) is 18 nM.
